Results as given in patent US20240287463A1, “INDUCIBLE TISSUE CONSTRUCTS AND USES THEREOF” (Massachusetts Institute of Technology, priority 2020, published 2024).

Columns and labels:
Type in all cases: cell-based, human
iCasp9-HDFs = assay: apoptosis of 2D monolayer fibroblasts (cellular ATP, cell density)
Method: To be able to remove fibroblasts on demand from the developing co-culture, the synthetically engineered, inducibly activated caspase-9 (iCasp9) outlined in the examples above was used. Using this inducible transgene, iCasp9-HDFs were established and characterized for effectiveness. iCasp9-HDFs were seeded on tissue culture plastic, and allowed to form a confluent monolayer before adding different concentrations of CID.

HUVECs [1] = assay: vascular network in HUVEC/iCasp9-HDF microfluidic devices after fibroblast removal (dextran perfusion)
Method: More specifically, the molds for the 2-channel microfluidic devices were constructed using stereolithography (Proto Labs). Polydimethylsiloxane (PDMS) was cured at a standard mixing ratio overnight at 60° C. in the mold, and individual devices were cut and plasma-bonded to glass slides. To enhance ECM bonding to PDMS, the surface inside the tissue chamber of the devices was functionalized with 0.01% poly-L-lysine and 1% glutaraldehyde following plasma-activation and washed overnight in DI water. On the day of seeding, devices were soaked in 70% ethanol (EtOH) and dried. Acupuncture needles (300 μm diameter) (Hwato) were blocked in 0.1% (w/v) bovine serum albumin (BSA) (Sigma) in phosphate buffer saline (PBS) for 45 minutes and inserted through the two needle guides. Devices with needles were UV-sterilized for 15 minutes. Once the needles were inserted, a fibrinogen solution containing human umbilical vein endothelial cells (HUVECs) and growth-arrested human dermal fibroblasts (HDFs) were added into the tissue chamber with thrombin. To prepare the cells for seeding, HDFs or iCasp-9 HDFs were growth-arrested with 10 μg/mL mitomycin in FGM-2 for 2.5 hours and thoroughly washed 5 times in FBM. Both HUVECs and HDFs were lifted from culture plates using TrypLE Express (Gibco), centrifuged at 200 g for 4 minutes, and resuspended to a concentration of 20 million cells/mL in EGM-2. A solution of HUVECs (3 million cells/mL), HDFs or iCasp-9 HDFs (0, 1 million, 3 million, or 6 million cells/mL), fibrinogen (2.5 mg/mL), thrombin (1 U/mL) in EGM-2 was prepared for the bulk hydrogel region of each device. After the addition of thrombin, the solution was quickly injected into the tissue chamber, and the devices were repeatedly rotated while the solution crosslinked. Appropriate media was added to each well of the device, and the devices were placed in the incubator (37° C., 5% CO2). After 15 minutes, the needles were carefully removed from the devices to create 300 μm hollow channels between the wells. Each channel of the device was seeded with additional HUVECs at 2 million cells/ml for at least 5 minutes on each side (top and bottom) in the incubator. Each device received 200 μl of appropriate media daily and cultured on the rocker inside the incubator. Once the fibrinogen polymerized into fibrin, the needles were removed to create two hollow, microfluidic channels. These channels were then seeded with additional HUVECs to line the walls in a monolayer.
Vessel networks were analyzed by fixing all devices with 4% PFA for 30 minutes on a rocker and washing with PBS overnight at 4° C. The devices were then blocked in 3% BSA overnight at 4° C. Lectin (UEA DyLight 649, Vector Labs) was diluted in the blocking solution at 1:100 dilution and added to the devices for another 4° C. overnight incubation. Devices were then washed overnight with PBS at 4° C. and kept in PBS with 0.02% (w/v) sodium azide at 4° C. until imaging. Before imaging, a solution of 500 kDa fluorescein isothiocyanate (FITC)- or tetramethylrhodamine isothiocyanate (TRITC)-conjugated dextran (0.15 mg/ml) was added to one of the microfluidic channels to generate gravity-driven hydrostatic pressure between the two channels of the device. All device images were then captured by a Leica SP8 confocal microscope (Leica, Wetzlar, Germany) using either a Leica 10×/0.30NA W U—V-I WD-3.60 Water or 25×/0.95NA W VISIR WD-2.50 Water objective and Leica LAS X imaging software. […]

HUVECs [2] = assay: vascular network in HUVEC/iCasp9-HLF microfluidic devices after fibroblast removal; conditions: iCasp9-HLFs removed after only 3 days of co-culture

acute effects on HUVECs / noticeable deterioration of the vascular structure (HUVECs [1]; 10 nM CID after 7 days of co-culture): not observed
Structure (SMILES): CC[C@H](C(=O)N1CCCC[C@H]1C(=O)O[C@H](CCc1ccc(OC)c(OC)c1)c1cccc(OCC(=O)NCC(CNC(=O)COc2cccc([C@@H](CCc3ccc(OC)c(OC)c3)OC(=O)[C@@H]3CCCCN3C(=O)[C@@H](CC)c3cc(OC)c(OC)c(OC)c3)c2)CN(C)C)c1)c1cc(OC)c(OC)c(OC)c1 [CID, AP20187]
time within which cellular ATP levels dropped precipitously (iCasp9-HDFs; 5 nM CID): 2 to 4 h
reduction of iCasp9-HDFs in culture compared to vehicle control (iCasp9-HDFs; 10 nM CID, overnight): ~96%
rapidity of ATP loss (iCasp9-HDFs; 5, 50, 500 nM CID): increased with increasing CID concentration
dextran transport of endothelial network at day 7 (HUVECs [1]; 50 nM CID at day 0): none of these structures could transport dextran
perfusion of endothelial network at day 7 (HUVECs [1]; 50 nM CID at day 1): little to no perfusion
endothelial network at day 7 (HUVECs [1]; 50 nM CID at day 3 or day 5): highly interconnected and perfusable endothelial networks
average diameter of the perfused vessels versus control (HUVECs [1]; all conditions except day 0 deletion): comparable
self-assembly of HUVECs at day 7 (HUVECs [2]): able to self-assemble into perfusable vasculature
